Calls of active or inactive are those of the source. The calls are words filed in the database; no cut-off is given here.
Tests used:
[1] = biological target: T1, Serine-protein kinase ATM (Homo sapiens, UniProt Q13315); experiment: Inhibition of ATM (unknown origin) using GST-cMyc-p53 as substrate incubated for 30 mins in presence of Mg/ATP mix by HTRF-based analysis
[2] = Toxicity in BALB/c mouse xenografted with human SW620 cells assessed as lung damage at 5 mg/kg, ip administered once daily and measured after 23 days by H&E staining based microscopic analysis; type: organism-based, SW-620; details: in vivo, 552 h, time 23 day
[3] = test system: HCT-116; experiment: Cell cycle arrest in human HCT-116 cells assessed as accumulation of cells at G2/M phase incubated for 24 hrs in presence of CPT-11 by PI staining based flow cytometric analysis; type: functional; details: dose 10-100 nM
[4] = test system: HCT-116; experiment: Induction of apoptosis in human HCT-116 cells assessed as early apoptotic cells at 30 nM measured after 72 hrs in presence of CPT-11 by Annexin V-FITC staining based flow cytometric analysis (reference value: 4.06%); type: functional
[5] = Toxicity in BALB/c mouse xenografted with human SW620 cells assessed as spleen damage at 5 mg/kg, ip administered once daily and measured after 23 days by H&E staining based microscopic analysis; type: organism-based, SW-620; details: in vivo, 552 h, time 23 day
[6] = test system: HCT-116; experiment: Induction of apoptosis in human HCT-116 cells assessed as late apoptotic cells at 10 nM measured after 72 hrs in presence of CPT-11 by Annexin V-FITC staining based flow cytometric analysis (reference value: 19.80%); type: functional
[7] = test system: SW-620; experiment: Antitumor activity against human SW620 cells xenografted in BALB/C mouse assessed as reduction in tumor volume at 5 mg/kg, ip administered once a week and measured after 23 days in the presence of CPT-11; type: functional, organism-based; details: time 23.0 day
[8] = test system: SW-620; experiment: In vivo inhibition of ATM in BALB/c mouse model xenografted with human SW620 cells assessed as inhibition of Chk2 phosphorylation at 5 mg/kg, ip administered once daily and measured after 23 days in the presence of CPT-11 by Western blot analysis; type: functional, organism-based; details: time 23.0 day
[9] = test system: SW-620; experiment: Antiproliferative activity against human SW620 cells assessed as reduction in colony formation at 9 nM measured after 14 days by crystal violet staining based microscopic analysis; type: functional, cell-based; details: time 14.0 day
[10] = biological target: PI3K p110 beta/p85 alpha (Homo sapiens, UniProt P42338); experiment: Inhibition of human PI3K p110 beta/p85 alpha using phosphatidylinositol-4, 5-bisphosphate as substrate incubated for 30 mins in the presence of Mg/ATP mix by HTRF-based analysis; type: protein-complex assay
[11] = test system: SW-620; experiment: Induction of apoptosis in human SW620 cells assessed as viable cells at 100 nM measured after 72 hrs in presence of CPT-11 by Annexin V-FITC staining based flow cytometric analysis (reference value: 87.36%); type: functional; details: read-out: Activity
[12] = Toxicity in BALB/c mouse xenografted with human SW620 cells assessed as heart damage at 5 mg/kg, ip administered once daily and measured after 23 days by H&E staining based microscopic analysis; type: organism-based, SW-620; details: in vivo, 552 h, time 23 day
[13] = test system: HCT-116; experiment: Induction of apoptosis in human HCT-116 cells assessed as late apoptotic cells at 1 uM measured after 72 hrs by Annexin V-FITC staining based flow cytometric analysis (reference value: 19.80%); type: functional
[14] = test system: HCT-116; experiment: Induction of apoptosis in human HCT-116 cells assessed as viable cells at 100 nM measured after 72 hrs in presence of CPT-11 by Annexin V-FITC staining based flow cytometric analysis (reference value: 73.74%); type: functional; details: read-out: Activity
[15] = test system: HCT-116; experiment: Induction of apoptosis in human HCT-116 cells assessed as necrotic cells at 30 nM measured after 72 hrs in presence of CPT-11 by Annexin V-FITC staining based flow cytometric analysis (reference value: 2.41%); type: functional
[16] = test system: SW-620; experiment: Induction of apoptosis in human SW620 cells assessed as necrotic cells at 10 nM measured after 72 hrs in presence of CPT-11 by Annexin V-FITC staining based flow cytometric analysis (reference value: 5.83%); type: functional
[17] = biological target: T1, Serine-protein kinase ATM; experiment: Inhibition of ATM in human SW620 cells assessed as increase in gamma H2AX foci at 250 nM incubated for 24 hrs by confocal microscopic analysis; type: cell-based
[18] = biological target: PI3-kinase p110-delta/p85-alpha (Homo sapiens, UniProt O00329); experiment: Inhibition of human PI3K p110 delta/p85 alpha using phosphatidylinositol-4, 5-bisphosphate as substrate incubated for 30 mins in the presence of Mg/ATP mix by HTRF-based analysis; type: protein-complex assay
[19] = Toxicity in BALB/c mouse xenografted with human SW620 cells assessed as kidney damage at 5 mg/kg, ip administered once daily and measured after 23 days by H&E staining based microscopic analysis; type: organism-based, SW-620; details: in vivo, 552 h, time 23 day
[20] = test system: HCT-116; experiment: Anticancer activity against human HCT-116 cells assessed as reduction in cell viability by measuring fold change in CPT-11 IC50 at 100 nM incubated for 5 days by MTT assay relative irinotecan alone; type: functional; details: time 5 day
[21] = test system: HCT-116; experiment: Induction of apoptosis in human HCT-116 cells assessed as necrotic cells at 1 uM measured after 72 hrs by Annexin V-FITC staining based flow cytometric analysis (reference value: 2.41%); type: functional
[22] = test system: SW-620; experiment: Radiosensitizing activity against human SW620 cells assessed as reduction in colony formation at 9 nM incubated after 14 days in the presence of 1.5 Gy irradiation by crystal violet staining based analysis; type: functional, cell-based; details: time 14.0 day
[23] = test system: HCT-116; experiment: Induction of apoptosis in human HCT-116 cells assessed as early apoptotic cells at 1 uM measured after 72 hrs by Annexin V-FITC staining based flow cytometric analysis (reference value: 4.06%); type: functional
[24] = test system: SW-620; experiment: In vivo inhibition of ATM in BALB/c mouse model xenografted with human SW620 cells assessed as inhibition of ATM phosphorylation at 5 mg/kg, ip administered once daily and measured after 23 days in the presence of CPT-11 by Western blot analysis; type: functional, organism-based; details: time 23.0 day
[25] = biological target: T1, Serine-protein kinase ATM; experiment: Inhibition of ATM phosphorylation in human SW620 cells with IR-induced DNA damage in the presence of 1.5 Gy irradiation by Western blot analysis; type: cell-based; details: dose 3-250 nM
[26] = test system: HCT-116; experiment: Induction of apoptosis in human HCT-116 cells assessed as late apoptotic cells at 30 nM measured after 72 hrs in presence of CPT-11 by Annexin V-FITC staining based flow cytometric analysis (reference value: 19.80%); type: functional

T1 sequence (Q13315 whole entry): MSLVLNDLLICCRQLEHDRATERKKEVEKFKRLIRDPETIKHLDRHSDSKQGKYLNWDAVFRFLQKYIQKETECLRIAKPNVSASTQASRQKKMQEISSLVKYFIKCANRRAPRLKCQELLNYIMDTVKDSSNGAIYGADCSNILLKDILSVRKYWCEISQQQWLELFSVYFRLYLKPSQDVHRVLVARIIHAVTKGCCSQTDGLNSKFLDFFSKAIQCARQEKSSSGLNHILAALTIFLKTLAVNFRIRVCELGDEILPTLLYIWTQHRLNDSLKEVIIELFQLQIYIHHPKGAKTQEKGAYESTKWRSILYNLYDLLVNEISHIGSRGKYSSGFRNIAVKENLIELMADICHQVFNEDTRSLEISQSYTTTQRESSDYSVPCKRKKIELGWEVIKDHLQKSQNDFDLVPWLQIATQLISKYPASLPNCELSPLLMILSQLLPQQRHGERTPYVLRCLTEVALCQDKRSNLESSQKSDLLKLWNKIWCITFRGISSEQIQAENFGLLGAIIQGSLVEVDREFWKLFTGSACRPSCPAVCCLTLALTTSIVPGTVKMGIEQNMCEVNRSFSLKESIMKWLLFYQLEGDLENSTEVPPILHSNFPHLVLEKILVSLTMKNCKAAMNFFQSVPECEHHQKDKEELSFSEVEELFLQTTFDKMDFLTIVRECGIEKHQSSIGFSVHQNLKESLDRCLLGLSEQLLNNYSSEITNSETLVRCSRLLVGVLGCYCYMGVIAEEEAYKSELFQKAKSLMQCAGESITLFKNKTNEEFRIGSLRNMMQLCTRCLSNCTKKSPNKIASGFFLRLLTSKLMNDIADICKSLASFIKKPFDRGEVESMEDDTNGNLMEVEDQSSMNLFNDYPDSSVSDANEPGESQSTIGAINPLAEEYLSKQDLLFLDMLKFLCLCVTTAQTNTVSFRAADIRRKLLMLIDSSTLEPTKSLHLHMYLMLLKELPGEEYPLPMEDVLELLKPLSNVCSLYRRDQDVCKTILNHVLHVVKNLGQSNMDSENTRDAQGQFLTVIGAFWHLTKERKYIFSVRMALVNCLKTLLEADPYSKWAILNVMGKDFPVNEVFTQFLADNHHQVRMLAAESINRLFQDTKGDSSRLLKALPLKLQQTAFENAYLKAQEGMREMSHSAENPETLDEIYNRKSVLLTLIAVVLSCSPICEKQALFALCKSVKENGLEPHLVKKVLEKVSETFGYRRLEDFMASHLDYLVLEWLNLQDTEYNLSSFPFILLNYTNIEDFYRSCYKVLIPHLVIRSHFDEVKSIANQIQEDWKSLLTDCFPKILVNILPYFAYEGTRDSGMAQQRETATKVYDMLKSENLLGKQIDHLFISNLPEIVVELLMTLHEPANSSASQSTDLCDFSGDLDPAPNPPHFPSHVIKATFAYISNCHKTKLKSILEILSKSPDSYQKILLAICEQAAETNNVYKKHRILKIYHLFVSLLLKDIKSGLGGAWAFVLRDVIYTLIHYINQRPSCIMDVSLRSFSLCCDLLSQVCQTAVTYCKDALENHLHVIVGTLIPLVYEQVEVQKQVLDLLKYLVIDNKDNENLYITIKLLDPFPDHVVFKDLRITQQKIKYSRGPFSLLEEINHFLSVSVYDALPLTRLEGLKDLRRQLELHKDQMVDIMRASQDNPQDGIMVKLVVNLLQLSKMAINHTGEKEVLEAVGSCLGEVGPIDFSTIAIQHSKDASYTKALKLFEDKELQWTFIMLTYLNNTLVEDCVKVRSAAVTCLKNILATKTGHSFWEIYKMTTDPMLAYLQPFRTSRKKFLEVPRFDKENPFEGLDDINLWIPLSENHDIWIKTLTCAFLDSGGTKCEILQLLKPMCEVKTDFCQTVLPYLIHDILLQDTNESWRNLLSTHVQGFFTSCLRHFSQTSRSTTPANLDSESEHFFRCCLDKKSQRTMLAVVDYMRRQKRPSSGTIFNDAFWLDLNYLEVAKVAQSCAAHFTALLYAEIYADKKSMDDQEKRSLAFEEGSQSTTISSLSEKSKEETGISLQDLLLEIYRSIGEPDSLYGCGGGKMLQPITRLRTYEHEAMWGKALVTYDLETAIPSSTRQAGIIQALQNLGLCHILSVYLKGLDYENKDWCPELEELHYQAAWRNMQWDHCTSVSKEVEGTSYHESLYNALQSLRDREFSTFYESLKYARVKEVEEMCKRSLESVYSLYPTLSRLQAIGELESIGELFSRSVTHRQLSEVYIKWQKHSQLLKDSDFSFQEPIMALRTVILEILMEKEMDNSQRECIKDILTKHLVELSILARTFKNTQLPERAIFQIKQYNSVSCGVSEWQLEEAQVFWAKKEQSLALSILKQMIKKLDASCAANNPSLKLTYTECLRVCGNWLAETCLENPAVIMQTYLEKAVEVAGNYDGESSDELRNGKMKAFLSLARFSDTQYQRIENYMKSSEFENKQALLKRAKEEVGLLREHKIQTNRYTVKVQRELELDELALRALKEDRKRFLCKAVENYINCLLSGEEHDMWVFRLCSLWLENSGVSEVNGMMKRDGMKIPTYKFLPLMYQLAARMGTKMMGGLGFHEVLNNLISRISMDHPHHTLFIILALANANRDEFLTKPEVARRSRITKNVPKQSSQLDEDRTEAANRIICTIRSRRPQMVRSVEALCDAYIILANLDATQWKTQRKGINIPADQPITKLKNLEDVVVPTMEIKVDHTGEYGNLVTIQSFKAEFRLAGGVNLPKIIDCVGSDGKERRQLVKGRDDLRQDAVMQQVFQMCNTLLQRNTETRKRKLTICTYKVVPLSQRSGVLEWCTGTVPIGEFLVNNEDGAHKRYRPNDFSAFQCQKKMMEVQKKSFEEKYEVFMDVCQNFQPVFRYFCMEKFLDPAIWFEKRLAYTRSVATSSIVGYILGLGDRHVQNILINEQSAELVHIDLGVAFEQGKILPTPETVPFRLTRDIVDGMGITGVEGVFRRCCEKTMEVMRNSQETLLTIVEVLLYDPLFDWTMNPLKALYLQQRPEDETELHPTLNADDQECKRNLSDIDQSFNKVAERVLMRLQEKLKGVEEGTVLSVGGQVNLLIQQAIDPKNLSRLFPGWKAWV
PI3K p110 beta/p85 alpha, sequence (P27986 whole entry): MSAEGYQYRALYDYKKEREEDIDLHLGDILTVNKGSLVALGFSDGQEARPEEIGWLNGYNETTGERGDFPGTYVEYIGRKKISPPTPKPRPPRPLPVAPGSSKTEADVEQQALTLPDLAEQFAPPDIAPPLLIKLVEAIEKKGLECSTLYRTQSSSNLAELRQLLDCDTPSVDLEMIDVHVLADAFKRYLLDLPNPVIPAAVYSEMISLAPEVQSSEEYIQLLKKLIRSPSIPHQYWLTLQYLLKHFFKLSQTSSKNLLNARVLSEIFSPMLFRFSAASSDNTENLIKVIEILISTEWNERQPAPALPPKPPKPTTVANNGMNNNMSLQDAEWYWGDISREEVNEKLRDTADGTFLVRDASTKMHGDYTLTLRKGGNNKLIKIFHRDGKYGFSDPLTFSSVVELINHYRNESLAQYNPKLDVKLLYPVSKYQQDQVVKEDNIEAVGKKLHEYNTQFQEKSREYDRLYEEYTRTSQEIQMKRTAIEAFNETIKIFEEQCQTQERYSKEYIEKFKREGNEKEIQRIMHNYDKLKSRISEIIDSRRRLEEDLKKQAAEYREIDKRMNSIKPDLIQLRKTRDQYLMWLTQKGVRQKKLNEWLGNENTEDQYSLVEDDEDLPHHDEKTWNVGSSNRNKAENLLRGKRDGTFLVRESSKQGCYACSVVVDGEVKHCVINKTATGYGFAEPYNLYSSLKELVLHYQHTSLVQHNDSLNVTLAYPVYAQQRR
PI3K p110 beta/p85 alpha, sequence (P42338 whole entry): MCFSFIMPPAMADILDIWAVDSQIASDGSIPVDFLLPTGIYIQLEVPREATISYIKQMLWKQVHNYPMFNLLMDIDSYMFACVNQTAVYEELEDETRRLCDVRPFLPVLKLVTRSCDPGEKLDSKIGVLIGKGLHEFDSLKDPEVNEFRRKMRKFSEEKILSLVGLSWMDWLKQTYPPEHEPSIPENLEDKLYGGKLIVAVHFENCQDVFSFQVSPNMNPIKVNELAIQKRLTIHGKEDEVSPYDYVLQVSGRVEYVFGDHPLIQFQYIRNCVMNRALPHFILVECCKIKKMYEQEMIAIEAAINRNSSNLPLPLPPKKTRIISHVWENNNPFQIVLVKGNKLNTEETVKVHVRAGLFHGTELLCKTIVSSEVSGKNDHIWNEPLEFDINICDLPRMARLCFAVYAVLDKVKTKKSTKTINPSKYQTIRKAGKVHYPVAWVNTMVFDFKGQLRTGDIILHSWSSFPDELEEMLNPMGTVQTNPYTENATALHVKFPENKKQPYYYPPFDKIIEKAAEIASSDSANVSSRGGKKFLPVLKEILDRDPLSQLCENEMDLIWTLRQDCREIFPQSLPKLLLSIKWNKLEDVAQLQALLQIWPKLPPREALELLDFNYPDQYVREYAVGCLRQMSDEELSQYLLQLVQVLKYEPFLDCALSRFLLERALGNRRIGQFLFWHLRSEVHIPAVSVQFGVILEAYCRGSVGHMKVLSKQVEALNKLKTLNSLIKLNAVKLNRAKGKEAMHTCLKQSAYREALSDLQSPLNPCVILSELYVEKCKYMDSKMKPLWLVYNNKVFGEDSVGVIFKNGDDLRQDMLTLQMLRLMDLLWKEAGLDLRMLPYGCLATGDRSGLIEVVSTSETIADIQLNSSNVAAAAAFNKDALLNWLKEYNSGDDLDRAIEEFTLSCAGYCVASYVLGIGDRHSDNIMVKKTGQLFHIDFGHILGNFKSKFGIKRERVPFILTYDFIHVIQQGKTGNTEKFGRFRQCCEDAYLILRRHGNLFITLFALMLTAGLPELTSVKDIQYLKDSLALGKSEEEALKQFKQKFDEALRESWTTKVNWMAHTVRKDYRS

IC50 [1]: 1 nM
IC50 [10]: 1850 nM
inhibition [17]: Active
IC50 [18]: 1030 nM
SMILES: C[C@H](c1ccccc1)n1nnc2cnc3ccc(-c4ccc(OCCCN(C)C)nc4)cc3c21
Activity [2]: Non-Toxic
Activity [3]: Dose-Dependent Effect
Activity [4]: 2.23%
Activity [5]: Non-Toxic
Activity [6]: 34.21%
Activity [7]: Active
inhibition [8]: Active
Activity [9]: inactive
viability at 0.1 µM [11]: 30.5%
Activity [12]: Non-Toxic
Activity [13]: 31.02%
viability at 0.1 µM [14]: 22%
Activity [15]: 8.39%
Activity [16]: 5.94%
Activity [19]: Non-Toxic
fold change (FC) [20]: 16
Activity [21]: 5.57%
Activity [22]: Active
Activity [23]: 1.34%
inhibition [24]: Active
inhibition [25]: Dose-Dependent Effect
Activity [26]: 63.63%

Source: ChEMBL document CHEMBL5316381, “Discovery of [1,2,3]Triazolo[4,5-c]quinoline Derivatives as a New Class of Ataxia-Telangiectasia Mutated Kinase Inhibitors” (ACS Med Chem Lett, 2023)
